From patent US20230277533A1, “THERAPEUTIC COMBINATIONS COMPRISING UBIQUITIN-SPECIFIC-PROCESSING PROTEASE 1 (USP1) INHIBITORS AND POLY (ADP-RIBOSE) POLYMERASE (PARP) INHIBITORS” (KSQ Therapeutics, Inc., priority 2020, published 2023)
Like-named read-outs stand apart in the source and are kept apart here.

How the values were obtained:
Assay in all cases: Colony formation (CFU) assay
Type in all cases: cell-based
SNU668 = conditions: SNU668, stomach
Method in brief: (§1)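 Seeding density set per line for separated colonies over ~14 days; treatment medium with test agents or DMSO from day 8. Endpoint: crystal violet staining, acetic acid extraction, absorbance 565 nm. IC50 from a two-parameter Hill curve.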

NOS1 = conditions: NOS1, bone
Method in brief: as §1

TGBC1TKB = conditions: biliary tract
Method in brief: as §1

HBCx17 = conditions: HBCx17, breast
Method in brief: as §1

SW948 = conditions: Homo sapiens; SW948, colon
Method in brief: as §1

TE14 = conditions: TE14, esophagus
Method in brief: as §1

ECGI10 = conditions: ECGI10, esophagus
Method in brief: as §1

SN12C = conditions: Homo sapiens, kidney
Method in brief: as §1

SKES1 = conditions: Homo sapiens, SK-ES1; SKES1, bone
Method in brief: as §1

YD38 = conditions: YD38, head and neck
Method in brief: as §1

MG63 = conditions: Homo sapiens, MG-63; MG63, bone
Method in brief: as §1

YKG1 = conditions: Homo sapiens, YKG-1; YKG1, nervous system
Method in brief: as §1

JHH7 = conditions: JHH7, liver
Method in brief: as §1

SKOV3_BRCA1null = conditions: ovary
Method in brief: as §1

G292CLONEA141B1 = conditions: G292CLONEA141B1, bone
Method in brief: as §1

RERFLCAI = conditions: lung
Method in brief: as §1

HT144 = conditions: Homo sapiens, HT-144; HT144, skin
Method in brief: as §1

KP3 = system: KP3
Method in brief: as §1

8305C = conditions: Homo sapiens, thyroid
Method in brief: as §1

COV504 = conditions: COV504, ovary
Method in brief: as §1

OVSAHO = conditions: Homo sapiens, ovary
Method in brief: as §1

HCC1438 = conditions: HCC1438, lung
Method in brief: as §1

HBCx9 = conditions: HBCx9, breast
Method in brief: as §1

ES2 = conditions: Homo sapiens, ES-2; ES2, ovary
Method in brief: as §1

KMBC2 = conditions: KMBC2, bladder
Method in brief: as §1

CAPAN1 = conditions: Homo sapiens, CAPAN-1; CAPAN1, pancreas
Method in brief: as §1

NCIH1299 = conditions: Homo sapiens, NCI-H1299; NCIH1299, lung
Method in brief: as §1

SNU8 = conditions: SNU8, ovary
Method in brief: as §1

PECAPJ15 = conditions: PECAPJ15, head and neck
Method in brief: as §1

SNUC5 = conditions: SNUC5, colon
Method in brief: as §1

NCIH1838 = conditions: Homo sapiens, NCI-H1838; NCIH1838, lung
Method in brief: as §1

HCC1954 = conditions: Homo sapiens; HCC1954, breast
Method in brief: as §1

A2780 = conditions: Homo sapiens; A2780, ovary
Method in brief: as §1

KM12 = conditions: Homo sapiens; KM12, colon
Method in brief: as §1

BT474 = conditions: Homo sapiens, BT-474; BT474, breast
Method in brief: as §1

JHOS2 = conditions: for IC50: JHOS2, ovary; for activity as single agents: JHOS2, up to 300 nM
Method in brief: as §1

CFPAC1 = conditions: Homo sapiens, CFPAC-1; CFPAC1, pancreas
Method in brief: as §1

KYSE410 = conditions: Homo sapiens, KYSE-410; KYSE410, esophagus
Method in brief: as §1

Compound | IC50 (SNU668) | IC50 (NOS1) | IC50 (TGBC1TKB) | IC50 (HBCx17) | IC50 (SW948) | IC50 (TE14) | IC50 (ECGI10) | IC50 (SN12C) | IC50 (SKES1) | IC50 (YD38) | IC50 (MG63) | IC50 (YKG1) | IC50 (JHH7) | IC50 (SKOV3_BRCA1null) | IC50 (G292CLONEA141B1) | IC50 (RERFLCAI) | IC50 (HT144) | IC50 (8305C) | IC50 (COV504) | IC50 (OVSAHO) | other results
NC(=O)c1cccc2cn(-c3ccc([C@@H]4CCCNC4)cc3)nc12 [Niraparib, niraparib, reference compound] | > 300 nM | > 300 nM | > 300 nM | 13.8 nM | > 300 nM | > 300 nM | > 300 nM | > 300 nM | 23.6 nM | > 300 nM | > 300 nM | > 300 nM | > 300 nM | 262 nM | > 300 nM | > 300 nM | 114 nM | > 300 nM | 4.17 nM | > 300 nM | IC50 (KP3; KP3, pancreas, read-out: IC50): > 300 nM; IC50 (HCC1438): 42.5 nM; IC50 (HBCx9): 55.8 nM; IC50 (ES2): > 300 nM; IC50 (KMBC2): > 300 nM; IC50 (CAPAN1): 185 nM; IC50 (NCIH1299): > 300 nM; IC50 (SNU8): > 300 nM; IC50 (PECAPJ15): > 300 nM; IC50 (SNUC5): 92.4 nM; IC50 (NCIH1838): > 300 nM; IC50 (HCC1954): > 300 nM; IC50 (A2780): > 300 nM; IC50 (KM12): 106 nM; IC50 (BT474): > 300 nM; IC50 (JHOS2): > 300 nM; activity as single agents (JHOS2): little to no activity; IC50 (CFPAC1): > 300 nM; IC50 (KYSE410): > 300 nM
COc1ncnc(C2CC2)c1-c1ncc2cnn(Cc3ccc(-c4nc(C(F)(F)F)cn4C)cc3)c2n1 [Formula II, 6-(4-cyclopropyl-6-methoxypyrimidin-5-yl)-1-(4-(1-methyl-4-(trifluoromethyl)-1H-imidazol-2-yl)benzyl)-1H-pyrazolo[3,4-d]pyrimidine] | > 300 nM | > 300 nM | > 300 nM | > 300 nM | > 300 nM | > 300 nM | > 300 nM | 64.7 nM | > 300 nM | > 300 nM | > 300 nM | > 300 nM | > 300 nM | > 300 nM | > 300 nM | > 300 nM | 84.3 nM | > 300 nM | 6.63 nM | > 300 nM | IC50 (KP3): > 300 nM; IC50 (HCC1438): > 300 nM; IC50 (HBCx9): > 300 nM; IC50 (ES2): 27.5 nM; IC50 (KMBC2): > 300 nM; IC50 (CAPAN1): > 300 nM; IC50 (NCIH1299): > 300 nM; IC50 (SNU8): > 300 nM; IC50 (PECAPJ15): > 300 nM; IC50 (SNUC5): > 300 nM; IC50 (NCIH1838): > 300 nM; IC50 (HCC1954): > 300 nM; IC50 (A2780): > 300 nM; IC50 (KM12): 220 nM; IC50 (BT474): > 300 nM; IC50 (JHOS2): > 300 nM; activity as single agents (JHOS2): little to no activity; IC50 (CFPAC1): > 300 nM; IC50 (KYSE410): > 300 nM
